Here are results for 17 compounds from ChEMBL document CHEMBL1126954, “Synthesis and antimalarial activity of some 9-substituted artemisinin derivatives” (J Med Chem, 1993).

Values after ≈ are worked out from the molar mass of the structure shown.

Type in all cases: functional, organism-based
For test [1], the system named is Plasmodium falciparum. Nature of the test: In vitro antimalarial activity against Plasmodium falciparum D6 Sierra Leone.
Test [2] relates to Plasmodium falciparum. Nature of the test: In vitro antimalarial activity against Plasmodium falciparum W-2 (Indochina).
Test [3] concerns Plasmodium falciparum. Nature of the test: In vitro antimalarial activity relative to artemisinin against Plasmodium falciparum W-2 (Indochina).
Test [4] relates to Plasmodium falciparum. Nature of the test: In vitro antimalarial activity against Plasmodium falciparum D6 Sierra Leone relative to artemisinin.
The test system of test [5] is Plasmodium falciparum. Nature of the test: In vitro antimalarial activity against Plasmodium falciparum D6 (Sierra Leone); Not active <= 5000 ng/mL.
The test system of test [6] is Plasmodium falciparum. Nature of the test: In vitro antimalarial activity against Plasmodium falciparum D-6 Sierra Leone relative to artemisinin; Not active <= 5000 ng/mL.
The subject of test [7] is Plasmodium falciparum. Nature of the test: In vitro antimalarial activity relative to artemisinin against Plasmodium falciparum W2 (Indochina); Not active <= 5000 ng/mL.
Test [8] concerns Plasmodium falciparum. Nature of the test: In vitro antimalarial activity against Plasmodium falciparum W-2 (Indochina) relative to artemisinin; Not active at <5000 ng/mL.

Take `C=C1C2CC[C@@H](C)C3CC[C@@]4(C)OO[C@@]23[C@H](O[C@@H]1OO)O4` (stereo partly drawn): the IC50 (usually the concentration needed to halve the response being measured) worked out at 4.08 ng/mL (≈ 0.0137 µM) with Plasmodium falciparum [1] and 8.12 ng/mL (≈ 0.0272 µM) in the test on Plasmodium falciparum [2]. Moreover, the figures for the IC50 ratio with Plasmodium falciparum [3] and with Plasmodium falciparum [4] were 8 and 2, respectively.

`C[C@@H]1CCC2[C@]34OO[C@](C)(CCC13)O[C@H]4OC(=O)[C@@]21CCN=N1` (stereo partly drawn): the IC50 in the test on Plasmodium falciparum [1] was determined as 604 ng/mL (≈ 1.87 µM); in the test with Plasmodium falciparum [2], 447 ng/mL (≈ 1.39 µM). The IC50 ratio in the test with Plasmodium falciparum [3] came to 408; in the test on Plasmodium falciparum [4], 280.

For `C[C@@H]1CCC2[C@]34OO[C@](C)(CCC13)O[C@H]4OC(=O)[C@@]2(Br)CBr` (stereo partly drawn), the IC50 with Plasmodium falciparum [1] is 77 ng/mL (≈ 0.175 µM); in the test on Plasmodium falciparum [2], 67 ng/mL (≈ 0.152 µM). In addition, the values for the IC50 ratio in the test with Plasmodium falciparum [3] and in the test with Plasmodium falciparum [4] were 44 and 26, respectively.

As to `C[C@@H]1CCC2[C@]34OO[C@](C)(CCC13)O[C@H]4O[C@H](OO)[C@@]21CO1` (stereo partly drawn), the IC50 in the test with Plasmodium falciparum [1] came to 2.8 ng/mL (≈ 0.00891 µM); in the test on Plasmodium falciparum [2] it was 4.5 ng/mL (≈ 0.0143 µM). Besides, the IC50 ratio is 4.2 in the test with Plasmodium falciparum [3] and 1.3 in the test with Plasmodium falciparum [4].

Turning to `C[C@@H]1CCC2[C@]34OO[C@](C)(CCC13)O[C@H]4OC(=O)[C@]21CO1` (stereo partly drawn), the IC50 result in the test on Plasmodium falciparum [5], with Plasmodium falciparum [6], with Plasmodium falciparum [7] and with Plasmodium falciparum [8] was “Not Active” each time.

Regarding `CSC1=NN=C2C3CC[C@@H](C)C4CC[C@@]5(C)OO[C@@]34[C@H](OC2(O)S1)O5` (stereo partly drawn), the IC50 in the test on Plasmodium falciparum [1] turned out to be 789 ng/mL (≈ 2.04 µM); in the test on Plasmodium falciparum [2], 564 ng/mL (≈ 1.46 µM). The IC50 ratio with Plasmodium falciparum [3] worked out at 429; in the test on Plasmodium falciparum [4], 305.

With `C[C@@H]1CCC2[C@]34OO[C@](C)(CCC13)O[C@H]4O[C@H](OO)[C@]21CO1` (stereo partly drawn), the IC50 is 2 ng/mL (≈ 0.00636 µM) with Plasmodium falciparum [1] and 4 ng/mL (≈ 0.0127 µM) in the test with Plasmodium falciparum [2]. In addition, the IC50 ratio is 3.7 with Plasmodium falciparum [3] and 0.9 in the test with Plasmodium falciparum [4].

As for `C[C@@H]1CCC2[C@]34OO[C@](C)(CCC13)O[C@H]4OC(=O)[C@@]21CO1` (stereo partly drawn), the IC50 in the test on Plasmodium falciparum [1] was determined as 96 ng/mL (≈ 0.324 µM); with Plasmodium falciparum [2], 124 ng/mL (≈ 0.418 µM). Besides, the IC50 ratio in the test with Plasmodium falciparum [3] came out at 123; in the test with Plasmodium falciparum [4], 48.

Turning to `C[C@@H]1CCC2C(=O)C(=O)O[C@@H]3O[C@@]4(C)CCC1[C@@]23OO4` (stereo partly drawn), the IC50 was determined as 319 ng/mL (≈ 1.13 µM) with Plasmodium falciparum [1] and 278 ng/mL (≈ 0.985 µM) with Plasmodium falciparum [2]. In addition, the IC50 ratio with Plasmodium falciparum [3] amounted to 290; in the test on Plasmodium falciparum [4], 169.

In the case of `C[C@@H]1CCC2C3(CC3)C(=O)O[C@@H]3O[C@@]4(C)CCC1[C@@]23OO4` (stereo partly drawn), the IC50 stood at 10 ng/mL (≈ 0.034 µM) in the test on Plasmodium falciparum [1] and 8.6 ng/mL (≈ 0.0292 µM) in the test with Plasmodium falciparum [2]. In addition, the IC50 ratio in the test on Plasmodium falciparum [3] was determined as 8.6; in the test on Plasmodium falciparum [4], 5.2.

On to `C[C@@H]1CCC2[C@]34OO[C@](C)(CCC13)O[C@H]4OC(=O)[C@@]2(O)CO` (stereo partly drawn), for which the IC50 result with Plasmodium falciparum [5], in the test with Plasmodium falciparum [6], in the test on Plasmodium falciparum [7] and in the test with Plasmodium falciparum [8] was “Not Active” in each case.

As for `C[C@@H]1CCC2[C@@]3(CO3)C(O)O[C@@H]3O[C@@]4(C)CCC1[C@@]23OO4` (stereo partly drawn), the IC50 in the test with Plasmodium falciparum [1] came out at 1.8 ng/mL (≈ 0.00603 µM); in the test with Plasmodium falciparum [2] it was 3.4 ng/mL (≈ 0.0114 µM). The IC50 ratio was found to be 3.4 in the test with Plasmodium falciparum [3] and 0.9 with Plasmodium falciparum [4].

`C[C@@H]1CCC2[C@H](O)[C@H](O)O[C@@H]3O[C@@]4(C)CCC1[C@@]23OO4` (stereo partly drawn): the IC50 in the test with Plasmodium falciparum [1] worked out at 7.3 ng/mL (≈ 0.0255 µM); with Plasmodium falciparum [2], 7.4 ng/mL (≈ 0.0258 µM). Moreover, the IC50 ratio was 7.6 in the test on Plasmodium falciparum [3] and 3.8 in the test with Plasmodium falciparum [4].

Regarding `C/C=C1\C(=O)O[C@@H]2O[C@@]3(C)CCC4[C@H](C)CC[C@@H]1[C@]42OO3` (stereo partly drawn), the IC50 in the test with Plasmodium falciparum [1] turned out to be 2.1 ng/mL (≈ 0.00713 µM); in the test with Plasmodium falciparum [2], 2.3 ng/mL (≈ 0.00781 µM). Besides, the IC50 ratio in the test with Plasmodium falciparum [3] amounted to 2.3; in the test with Plasmodium falciparum [4] it was 1.1.

With `C=C1C2CC[C@@H](C)C3CC[C@@]4(C)OO[C@@]23[C@H](O[C@@H]1O)O4` (stereo partly drawn), the IC50 came to 119 ng/mL (≈ 0.421 µM) in the test with Plasmodium falciparum [1] and 232 ng/mL (≈ 0.822 µM) in the test on Plasmodium falciparum [2]. For the same compound, the IC50 ratio with Plasmodium falciparum [3] amounted to 242; in the test with Plasmodium falciparum [4] it was 63.

For `C[C@@H]1CC[C@H]2[C@@H](C)C(=O)O[C@@H]3O[C@@]4(C)CC[C@@H]1[C@]32OO4` [ARTEMISININ], the values for the IC50 with Plasmodium falciparum [1], in the test with Plasmodium falciparum [2] and with Plasmodium falciparum [3] (Plasmodium falciparum) were 1.89 ng/mL (≈ 0.00669 µM), 0.95 ng/mL (≈ 0.00336 µM) and 1 ng/mL (≈ 0.00354 µM), respectively. Further, the IC50 ratio in the test with Plasmodium falciparum [4] stood at 1.

Consider `C=C1C(=O)O[C@@H]2O[C@@]3(C)CC[C@H]4[C@H](C)CC[C@@H]1[C@@]24OO3` [ARTEMISITENE], for which the values for the IC50 in the test with Plasmodium falciparum [1] and with Plasmodium falciparum [2] were 5.3 ng/mL (≈ 0.0189 µM) and 7.44 ng/mL (≈ 0.0265 µM), respectively. The IC50 ratio in the test with Plasmodium falciparum [3] turned out to be 7.8; in the test on Plasmodium falciparum [4], 2.8.
